From US5910494A, “Hypolipidemic 1,4-benzothiazepine-1,1-dioxides” (Glaxo Wellcome Inc., priority 1997, dated 1999)

Test system: ileal bile acid active uptake transport system
Assay: In vivo inhibition of bile acid uptake: fecal excretion of 75SeHCAT (% inhibition of 75SeHCAT)
Design: species or system Male Spraque-Dawley rats
Conditions: oral gavage, twice daily for two days, rat, feces over 24 hr
Text: In vivo inhibition of bile acid uptake
Inhibiting intestinal bile acid absorption with bile acid sequestrants or surgically with partial ileal bypass surgery is an effective way to decrease plasma LDL cholesterol concentration. Another approach to decreasing bile acid absorption is inhibiting the ileal bile acid active uptake transport system. It has been shown that this inhibition, as measured by the fecal excretion of bile acids results in hypocholesterolemic activity. (1) Lewis, M. C.; Brieaddy, L. E.; and Root, C. Effects of 2164U90 on Ileal Bile Acid Absorption and Serum Cholesterol in Rats and Mice. J. Lipid. Research., 1995, 36, 1098-1105.
Fecal Excretion of Bile Acids
Male Spraque-Dawley rats weighing 220-260 g were housed in individual cages and fed normal chow. The rats were divided into 6 treatment groups of 10 to 12 rats per group. The rats were dosed by oral gavage(1 mL/100 g body weight) with test compounds as a suspension in 0.5% methylcellulose at 9:00 am and 3:30 pm for two days. The control group received 0.5% methylcellulose. Two hours after the morning dose on day two, the rats were given a trace amount(1.3 nmoles) of 23, 25-^75 Se-homocholic acid taurine(^75 SeHCAT) in 1.0 mL saline orally. ^75 SeHCAT, a synthetic gamma emitting bile acid analog which is absorbed by the ileal bile acid uptake system similar to taurocholic acid, has been used clinically as a measure of ileal bile acid absorptionl,^1,2. Feces were collected over the 24 hr following ^75 SeHCAT administration. Fecal content of ^75 SeHCAT was determined using a Packard Auto-Gamma 5000 Series gamma-counter. Representative data are tabulated in Table 1 as the % inhibition of ^75 SeHCAT.

CCCC[C@]1(CC)CS(=O)(=O)c2cc(OC)ccc2[C@@H](c2ccccc2)N1 (relative stereo) [Example 10, (+-)-Trans-3-butyl-3-ethyl-2,3,4,5-tetrahydro-8-methoxy-5-phenyl-1,4-benzothiazepine 1,1-dioxide]
% Inhibition of ^75 SeHCAT (0.1 mg/kg): 33% | % Inhibition of ^75 SeHCAT (0.3 mg/kg): 53%

CCCC[C@]1(CC)CS(=O)(=O)c2cc(O)ccc2[C@@H](c2ccccc2)N1 (relative stereo) [Example 11, (+-)-trans-3-butyl-3-ethyl-2,3,4,5-tetrahydro-5-phenyl-1,4-benzothiazepine-8-ol 1,1-dioxide]
% Inhibition of ^75 SeHCAT (0.1 mg/kg): 71% | % Inhibition of ^75 SeHCAT (0.3 mg/kg): 72%

CCCC[C@]1(CC)CS(=O)(=O)c2cc(OC)c(C=O)cc2[C@@H](c2ccccc2)N1 (relative stereo) [Example 14, (+-)-Trans-3-butyl-3-ethyl-2,3,4,5-tetrahydro-8-methoxy-5-phenyl-1,4-benzothiazepine-7-carbaldehyde 1,1-dioxide]
% Inhibition of ^75 SeHCAT (0.3 mg/kg): 41% | % Inhibition of ^75 SeHCAT (1.0 mg/kg): 56%

CCCC[C@]1(CC)CS(=O)(=O)c2cc(O)c(C=O)cc2[C@@H](c2ccccc2)N1 (relative stereo) [Example 16, (+-)-Trans-3-butyl-3-ethyl-2,3,4,5-tetrahydro-8-hydroxy-5-phenyl-1,4-benzothiazepine-7-carbaldehyde 1,1-dioxide]
% Inhibition of ^75 SeHCAT (0.3 mg/kg): 34% | % Inhibition of ^75 SeHCAT (1.0 mg/kg): 44%

CCCC[C@]1(CC)CS(=O)(=O)c2cc(S(=O)(=O)O)ccc2[C@@H](c2ccccc2)N1 (relative stereo) [Example 18, (+-)-Trans-3-butyl-3-ethyl-2,3,4,5-tetrahydro-5-phenyl-1,4-benzothiazepine-8-sulfonic acid 1,1-dioxide]
% Inhibition of ^75 SeHCAT (0.3 mg/kg): 12% | % Inhibition of ^75 SeHCAT (1.0 mg/kg): 39%

CCCC[C@]1(CC)CS(=O)(=O)c2cc(OC)c(COC)cc2[C@@H](c2ccccc2)N1 (relative stereo) [Example 24, (+-)-Trans-3-butyl-3-ethyl-2,3,4,5-tetrahydro-8-methoxy-7-(methoxymethyl)-5-phenyl-1,4-benzothiazepine 1,1-dioxide]
% Inhibition of ^75 SeHCAT (0.3 mg/kg): 24% | % Inhibition of ^75 SeHCAT (1.0 mg/kg): 49%

CCCC[C@]1(CC)CS(=O)(=O)c2cc(OC)c(OC)cc2[C@@H](c2ccccc2)N1OC(C)=O (relative stereo) [Example 45, (+-)-Trans-3-butyl-3-ethyl-5-phenyl-2,3,4,5-tetrahydro-7,8-dimethoxy-1,4-benzothiazepin-4-yl acetate S,S-dioxide]
% Inhibition of ^75 SeHCAT (0.3 mg/kg): 6% | % Inhibition of ^75 SeHCAT (1.0 mg/kg): 26%

CCCC[C@]1(CC)CS(=O)(=O)c2cc(OC)c(OC)cc2[C@@H](c2ccccc2)N1 [Example 1, (3R,5R)-3-butyl-3-ethyl-2,3,4,5-tetrahydro-7,8-dimethoxy-5-phenyl-1-4-benzothiazepine 1,1-dioxide]
% Inhibition of ^75 SeHCAT (0.1 mg/kg): 54% | % Inhibition of ^75 SeHCAT (0.3 mg/kg): 51%

CCCC[C@]1(CC)CS(=O)(=O)c2cc(O)c(O)cc2[C@@H](c2ccccc2)N1 [Example 7, (3R,5R)-3-Butyl-3-ethyl-2,3,4,5-tetrahydro-5-phenyl-1,4-benzothiazepine-7,8-diol 1,1-dioxide]
% Inhibition of ^75 SeHCAT (0.1 mg/kg): 72% | % Inhibition of ^75 SeHCAT (0.3 mg/kg): 65%

CCCC[C@]1(CC)CS(=O)(=O)c2cc(O)c(OC)cc2[C@@H](c2ccccc2)N1 [Example 9, (3R,5R)-3-Butyl-3-ethyl-2,3,4,5-tetrahydro-7-methoxy-5-phenyl-1,4-benzothiazepine-8-ol 1,1-dioxide]
% Inhibition of ^75 SeHCAT (0.1 mg/kg): 70% | % Inhibition of ^75 SeHCAT (0.3 mg/kg): 80%
